Measurements as given in the supplement of paper PMC10627819.

What was measured:
Assay in all cases: Bliss interaction score (quartile over a dose matrix) (fitness difference); higher = more antagonism (negative = synergy)
B. subtilis 168 = system: B. subtilis 168
Procedure, shortened: (§1)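 Fitness was derived from optical density at entry into stationary phase, divided by the robust mean of the no-drug wells on the same plate. That reading was taken as OD595, and the ratio was capped at 1. Single-drug fitness was inferred from the combination data. The Bliss score, observed fitness minus the expected product of single-drug fitness, was summarised as quartiles over technical, biological and donor/recipient replicates.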

S. aureus DSM 20231 = system: S. aureus DSM 20231
Procedure, shortened: as §1

S. aureus Newman = system: S. aureus Newman
Procedure, shortened: as §1

S. pneumoniae D39V = system: S. pneumoniae D39V
Procedure, shortened: as §1
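Further: first quartile when negative (synergy) and third quartile when positive (antagonism).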

Row | Structure (SMILES) | Bliss interaction score (B. subtilis 168) | Bliss interaction score (S. aureus DSM 20231) | Bliss interaction score (S. aureus Newman) | Bliss interaction score (S. pneumoniae D39V) | Bliss interaction score (B. subtilis 168; main component drawn) | Bliss interaction score (S. aureus DSM 20231; main component drawn) | Bliss interaction score (S. aureus Newman; main component drawn) | Bliss interaction score (S. pneumoniae D39V; main component drawn)
1 | CC(=O)O[C@H]1C[C@@]2(C)[C@@H](C[C@@H](O)[C@H]3[C@@]4(C)CC[C@@H](O)[C@@H](C)[C@@H]4CC[C@@]32C)/C1=C(\CCC=C(C)C)C(=O)O [Fusidic acid] + C/C(=C\C(=O)OCCCCCCCCC(=O)O)C[C@@H]1OC[C@H](C[C@@H]2O[C@H]2[C@@H](C)[C@H](C)O)[C@@H](O)[C@H]1O [Pseudomonic acid] | -0.0331 | 0.0339 | 0.031 | 0.1 |  |  |  | 
2 | CC(=O)O[C@H]1C[C@@]2(C)[C@@H](C[C@@H](O)[C@H]3[C@@]4(C)CC[C@@H](O)[C@@H](C)[C@@H]4CC[C@@]32C)/C1=C(\CCC=C(C)C)C(=O)O [Fusidic acid] + CC1(C)S[C@@H]2[C@H](NC(=O)Cc3ccccc3)C(=O)N2[C@H]1C(=O)O [PenicillinG] | 0.0421 | 0.0382 | -0.0384 | 0.0666 |  |  |  | 
3 | CC(=O)O[C@H]1C[C@@]2(C)[C@@H](C[C@@H](O)[C@H]3[C@@]4(C)CC[C@@H](O)[C@@H](C)[C@@H]4CC[C@@]32C)/C1=C(\CCC=C(C)C)C(=O)O [Fusidic acid] + CC1=C\[C@@H](O)CC(=O)Cc2nc(co2)C(=O)N2CCC=C2C(=O)O[C@H](C(C)C)[C@H](C)/C=C/C(=O)NC\C=C\1 [Virginiamycin M1] | 0.0743 | 0.0345 | -0.044 | 0.0996 |  |  |  | 
4 | CC(=O)O[C@H]1C[C@@]2(C)[C@@H](C[C@@H](O)[C@H]3[C@@]4(C)CC[C@@H](O)[C@@H](C)[C@@H]4CC[C@@]32C)/C1=C(\CCC=C(C)C)C(=O)O [Fusidic acid] + CC(=O)NC[C@H]1CN(c2ccc(N3CCOCC3)c(F)c2)C(=O)O1 [Linezolid] | -0.141 | -0.0285 | -0.0198 | -0.1 |  |  |  | 
5 | CC(=O)O[C@H]1C[C@@]2(C)[C@@H](C[C@@H](O)[C@H]3[C@@]4(C)CC[C@@H](O)[C@@H](C)[C@@H]4CC[C@@]32C)/C1=C(\CCC=C(C)C)C(=O)O [Fusidic acid] + CC(C1CCC(C(O1)OC2C(CC(C(C2O)OC3C(C(C(CO3)(C)O)NC)O)N)N)N)NC [Gentamicin] |  |  |  |  | -0.0712 | 0.034 | 0.0572 | -0.0713
6 | CC(=O)O[C@H]1C[C@@]2(C)[C@@H](C[C@@H](O)[C@H]3[C@@]4(C)CC[C@@H](O)[C@@H](C)[C@@H]4CC[C@@]32C)/C1=C(\CCC=C(C)C)C(=O)O [Fusidic acid] + CCC(C)C1C(=O)NC(=C)C(=O)NC(C(=O)NC(CSCC(C(=O)N1)NC(=O)/C(=C/C)/NC(=O)C(C(C)CC)N)C(=O)NC2C(SCC(NC(=O)CNC(=O)C3CCCN3C2=O)C(=O)NC(CCCCN)C(=O)NC4C(SCC(NC(=O)CNC(=O)C(NC(=O)C(NC(=O)C(NC(=O)CNC4=O)C)CC(C)C)CCSC)C(=O)NC(CC(=O)N)C(=O)NC(CCSC)C(=O)NC(CCCCN)C(=O)NC5C(SCC6C(=O)NC(C(=O)NC(CSC(C(C(=O)N6)NC(=O)C(NC5=O)C)C)C(=O)NC(CO)C(=O)NC(C(C)CC)C(=O)NC(CC7=CN=CN7)C(=O)NC(C(C)C)C(=O)NC(=C)C(=O)NC(CCCCN)C(=O)O)CC8=CN=CN8)C)C)C)CC(C)C [Nisin] |  |  |  |  | -0.0332 | 0.0299 | -0.0346 | -0.0281
7 | CC(=O)O[C@H]1C[C@@]2(C)[C@@H](C[C@@H](O)[C@H]3[C@@]4(C)CC[C@@H](O)[C@@H](C)[C@@H]4CC[C@@]32C)/C1=C(\CCC=C(C)C)C(=O)O [Fusidic acid] + CCCCCCCCCC(=O)N[C@@H]1[C@H]([C@@H]([C@H](O[C@H]1OC2=C3C=C4C=C2OC5=C(C=C(C=C5)[C@H]([C@H]6C(=O)N[C@@H](C7=C(C(=CC(=C7)O)OC8[C@H]([C@H]([C@@H]([C@H](O8)CO)O)O)O)C9=C(C=CC(=C9)[C@H](C(=O)N6)NC(=O)[C@@H]4NC(=O)[C@@H]1C2=CC(=CC(=C2)OC2=C(C=CC(=C2)[C@H](C(=O)N[C@H](CC2=CC(=C(O3)C=C2)Cl)C(=O)N1)N)O)O)O)C(=O)O)O[C@H]1[C@@H]([C@H]([C@@H]([C@H](O1)CO)O)O)NC(=O)C)Cl)CO)O)O [Teicoplanin] |  |  |  |  | -0.0459 | 0.0374 | -0.0424 | 0.0761
8 | CC(=O)O[C@H]1C[C@@]2(C)[C@@H](C[C@@H](O)[C@H]3[C@@]4(C)CC[C@@H](O)[C@@H](C)[C@@H]4CC[C@@]32C)/C1=C(\CCC=C(C)C)C(=O)O [Fusidic acid] + CCC[C@@H]1C[C@@H](C(=O)N[C@@H]([C@H]2O[C@H](SC)[C@H](O)[C@@H](O)[C@H]2O)[C@@H](C)O)N(C)C1 [Lincomycin] | 0.0915 | -0.0572 | -0.0595 | -0.0651 |  |  |  | 
9 | CC(=O)O[C@H]1C[C@@]2(C)[C@@H](C[C@@H](O)[C@H]3[C@@]4(C)CC[C@@H](O)[C@@H](C)[C@@H]4CC[C@@]32C)/C1=C(\CCC=C(C)C)C(=O)O [Fusidic acid] + CCN(CC)CCOC(=O)c1ccc(N)cc1 [Procaine] | -0.0381 | -0.0218 | -0.0177 | 0.0981 |  |  |  | 
10 | CC(=O)O[C@H]1C[C@@]2(C)[C@@H](C[C@@H](O)[C@H]3[C@@]4(C)CC[C@@H](O)[C@@H](C)[C@@H]4CC[C@@]32C)/C1=C(\CCC=C(C)C)C(=O)O [Fusidic acid] + CC[C@H]1OC(=O)[C@H](C)C(=O)[C@H](C)[C@@H](O[C@@H]2O[C@H](C)C[C@H](N(C)C)[C@H]2O)[C@](C)(OC)C[C@@H](C)C(=O)[C@H](C)[C@H]2N(CCCCn3cnc(-c4cccnc4)c3)C(=O)O[C@]12C [Telithromycin] | -0.0755 | -0.0334 | 0.0161 | -0.0347 |  |  |  | 
11 | CC(=O)O[C@H]1C[C@@]2(C)[C@@H](C[C@@H](O)[C@H]3[C@@]4(C)CC[C@@H](O)[C@@H](C)[C@@H]4CC[C@@]32C)/C1=C(\CCC=C(C)C)C(=O)O [Fusidic acid] + CN1C2=CC=CC=C2N=C3C1=CC=CC3=O [Pyocyanin] | 0.0385 | 0.0421 | 0.0295 | 0.0648 |  |  |  | 
12 | CC(=O)O[C@H]1C[C@@]2(C)[C@@H](C[C@@H](O)[C@H]3[C@@]4(C)CC[C@@H](O)[C@@H](C)[C@@H]4CC[C@@]32C)/C1=C(\CCC=C(C)C)C(=O)O [Fusidic acid] + CN(C)C(=O)C(CCN1CCC(O)(c2ccc(Cl)cc2)CC1)(c1ccccc1)c1ccccc1 [Loperamide] | -0.0873 | 0.0226 | 0.0269 | 0.128 |  |  |  | 
13 | CC(=O)O[C@H]1C[C@@]2(C)[C@@H](C[C@@H](O)[C@H]3[C@@]4(C)CC[C@@H](O)[C@@H](C)[C@@H]4CC[C@@]32C)/C1=C(\CCC=C(C)C)C(=O)O [Fusidic acid] + CN(C)c1cc(NC(=O)CNC(C)(C)C)c(O)c2c1C[C@H]1C[C@H]3[C@H](N(C)C)C(O)=C(C(N)=O)C(=O)[C@@]3(O)C(O)=C1C2=O [Tigecycline] | 0.074 | -0.0504 | 0.0375 | -0.0713 |  |  |  | 
14 | CC(=O)O[C@H]1C[C@@]2(C)[C@@H](C[C@@H](O)[C@H]3[C@@]4(C)CC[C@@H](O)[C@@H](C)[C@@H]4CC[C@@]32C)/C1=C(\CCC=C(C)C)C(=O)O [Fusidic acid] + CN(N=O)C(=O)N[C@@H](C=O)[C@@H](O)[C@H](O)[C@H](O)CO [Streptozotocin] | 0.0745 | -0.0166 | -0.0145 | 0.0486 |  |  |  | 
